The term melting point denotes the temperature, or range, at which the solid turns liquid.

Structures are written as SMILES.

This is an account of results in a melting point compilation (Tetko et al.; mined from patent text by program, amines drawn as free bases though some values may be those of a salt).

As for `Cc1cc2n(C)c3cc(Cl)ncc3c(=O)n2n1`, the melting point is greater than 300 °C.

`COc1ccc(S(=O)(=O)Oc2ccc3[nH]cc(C4CCN(C)CC4)c3c2)cc1`: the melting point fell in the range of 186 to 187 °C.

Regarding `CCOC(=O)c1c(Cl)nc2cc(OC)c(OC)cc2c1-c1ccc(OC)c(OC)c1`, the melting point lay in the range of 168 to 169 °C.

As for `Cc1c(-c2ccc(C#N)cc2)n[nH]c1C(=O)O`, the melting point was found to be 260 °C.

As to `C[C@@H](S[C@H]1CO[C@H](c2ccccc2)OC1)[C@](O)(Cn1cncn1)c1ccc(F)cc1F`, the melting point lay within 58 to 60 °C.

In the case of `Cc1cccc(C)c1N1CCN(c2c(C)cccc2C)C1=N`, the melting point was in the range of 188 to 190 °C.

`Cc1ccc(C(N)=S)c(N)c1` had a melting point of 172 to 174 °C.

As to `Cn1cc(Oc2ccccc2)c(=O)c(-c2ccc(Cl)c(C(F)(F)F)c2)c1`, the melting point lay within 130 to 131 °C.

Regarding `CCc1cc2cc([N+](=O)[O-])ccc2s1`, the melting point came to 55 °C.

Regarding `CCCCNS(=O)(=O)CCCCn1c(COCC)nc2c(N)nc3ccccc3c21`, the melting point lay within 148 to 149 °C.

Take `C=CCN(C(C)=O)c1cccc(-c2ccc3nncn3n2)c1`: the melting point is 139 to 142 °C.

`COc1ccc2cc(S(=O)(=O)Nc3cccc(Cl)c3C)cc(S(=O)(=O)Nc3cccc(Cl)c3C)c2c1`: the melting point was 166 to 168 °C.

Turning to `CC1(C)Cc2c(c(N3CCOCC3)nc3sc4c(NCc5cnc6ccccc6c5)ncnc4c23)CO1`, the melting point lay within 272 to 273 °C.

As for `NC(=O)c1cc2cc(OC(F)(F)F)cc(NS(=O)(=O)c3cccs3)c2[nH]1`, the melting point was greater than 300 °C.

`CC(C)N(C)CCOc1ccc(-n2ccc(OCc3ccc(Cl)cn3)cc2=O)cc1` registered a melting point of 137 to 138 °C.

As for `COc1cc(CO)cc(F)n1`, the melting point was 46 to 49 °C.

On to `Cc1cc(-c2cccc(CO)c2)cn2cc(-c3ccc(Cl)cc3)nc12`, for which the melting point was 174 to 177 °C.

Regarding `COc1ccc(-c2nnsc2-c2ccccc2)cc1`, the melting point lay within 81.5 to 82.5 °C.

Turning to `Cc1ccccc1C(=O)Nc1ccc(C(=O)N2CCc3cnoc3-c3ccccc32)cc1`, the melting point fell in the range of 257 to 260 °C.

For the molecule `CC(C)(C)OC(=O)[C@@H]1CN(Cc2ccccc2)C(=O)N1`, the melting point lay within 96 to 98 °C.

The molecule `COCCOC(=O)c1ccc(O)cc1` returned a melting point of 90 to 93 °C.

Take `CC(C)OC(=O)c1cc2c(cn1)[nH]c1cccc(Cc3ccccc3Cl)c12`: the melting point is 258 to 260 °C.

Regarding `Oc1ccc(-c2nc(-c3ccc(O)cc3O)nc(-c3cccn3Cc3ccccc3)n2)c(O)c1`, the melting point is greater than 275 °C.

Molecule `CC(=O)Nc1ccc(C(=O)CCC(=O)O)cc1Cl` gave a melting point of 168 to 170 °C.

The molecule `Cc1cc(C(O)(C(F)(F)F)C(F)(F)F)c2ccccc2c1NS(C)(=O)=O` gave a melting point of 174 °C.

Molecule `Cc1nc(NC(=O)c2ccc(F)cc2Cl)sc1C(=O)NCc1ccccc1` had a melting point of 95 to 96 °C.

On to `Clc1ccc2[nH]cc(C3=CCN(CCCOc4cccc5[nH]ccc45)CC3)c2c1`, for which the melting point was in the range of 198 to 202 °C.

Consider `CCCCc1nc(SC)c[nH]1`, for which the melting point amounted to 64 °C.

On to `O=C(O)c1ccc2c(c1)Sc1ccccc1S2`, for which the melting point was found to be 220 °C.

The molecule `Cc1ccc(C)c(C(Cl)=NNc2ccccc2)c1` displayed a melting point of 48.5 to 49 °C.

Consider `NCC1Cc2cccc3cccc1c23` (stereo not given), for which the melting point is greater than 250 °C.

With `O=CNC1CCCc2sc(Br)cc21` (stereo not given), the melting point was 104 to 108 °C.

As for `CN1CC=C(C2=Nc3cc(Cl)ccc3Oc3ccc(Cl)cc32)CC1`, the melting point lay in the range of 166 to 167 °C.

The molecule `COCCc1nc2c(N)nc3ccccc3c2n1CCOCCN(C(N)=O)c1ccccc1` had a melting point of 171 to 174 °C.

`N#Cc1c(N2CCCCC2)cc(-c2cccc3ccccc23)c2c1Cc1ccccc1-2` yielded a melting point of 148 to 149 °C.

With `O=Cc1ccc(OCc2ccc3ccccc3n2)cc1`, the melting point was 69 to 72 °C.

Molecule `C=Cc1c(F)c(N2CC3CN(C)CC3C2)c(F)c2c1c(=O)c(C(=O)O)cn2C1CC1` (stereo not given) returned a melting point of 156 to 157 °C.

`Cc1ccc(S(=O)(=O)N2CCCC2c2cccs2)cc1` (racemic) came in with a melting point of 108 °C.

Turning to `CCOc1ccc(CCc2ccc(OC(F)F)cc2)cc1`, the melting point is 37 °C.

Molecule `CC(C)(C)OC(=O)N1CCC(c2c(F)cc(N3C[C@H](CN=[N+]=[N-])OC3=O)cc2F)CC1` had a melting point of 125 to 127 °C.

`CNc1nc(N)nc(N)n1` showed a melting point of 269 °C.

`C(=Cc1ccc2c(n1)[nH]c1ccccc12)c1ccccc1` registered a melting point greater than 220 °C.

`O=C(NCCCO)c1cccc(Nc2nccc(-c3ccnc(NCCCO)c3)n2)c1` showed a melting point of 153 to 154 °C.

Regarding `CCc1nsc(C(=O)NC(C)C)c1C(=O)OC`, the melting point fell in the range of 55 to 56 °C.

As for `Cc1ccc(S(=O)(=O)Nc2cccc3cc(C(=O)Nc4ccccc4)[nH]c23)cc1`, the melting point was in the range of 247 to 248 °C.

Molecule `Clc1nnc(Cc2ccncc2)c2ccccc12` yielded a melting point of 116 to 119 °C.

`CCC(=O)NN(C(C)=O)[C@@H]1c2cc(C#N)ccc2OC(C)(C)[C@H]1O` (relative stereo) returned a melting point of 201 to 203 °C.

The molecule `O=C(c1cn(Cc2ccccc2Cl)nn1)N1CCCCC1` returned a melting point of 141 to 142 °C.

With `Cc1cc(SCc2ccc(OCc3ccc(F)cc3F)cc2)ccc1OCC(=O)O`, the melting point lay within 139 to 141 °C.

`COc1cc(C2=NC(C)(C)C(c3ccncc3)C2)cc(OC)c1OC` (stereo not given) showed a melting point of 143 to 144 °C.

Regarding `COc1c(C2CCN(CCCCNC(=O)c3sc(-c4ccc(C#N)cc4)nc3CO)CC2)ccc2c1CCCC2`, the melting point amounted to 212 °C.

On to `CC(C)Cc1ccc2c(c1)C(=O)N(c1ccc3c(ccn3C)c1)C2`, for which the melting point fell in the range of 193 to 194 °C.

The molecule `CCCCCC(C)C(C)c1cc(O)c2c(c1)OC(C)(C)C1=C2CCC1` (stereo not given) gave a melting point of 154 to 156 °C.

As to `CC12CCC(=O)NC1CCc1cc(-c3cccc([N+](=O)[O-])c3)ccc12` (single isomer, unassigned; (+)), the melting point lay within 223 to 225 °C.

Consider `CCCCOc1cc(CCC(=O)O)ccc1CCCc1ccc(OCCCC)c(OC)c1`, for which the melting point was determined as 64 °C.

`OCCCC1(c2ccccc2)OCCO1` showed a melting point of 39 to 42 °C.

`CC=CCOc1ccc(C)c2c1C(=O)C(C)C2c1ccccc1` (stereo not given) returned a melting point of 138 to 140 °C.

`COC(=O)CCC(=O)c1ccc(CCCCCCNC(C)=O)cc1` had a melting point of 87 to 89 °C.

On to `N#Cc1cc(Br)c(I)c(Br)c1`, for which the melting point is 170 to 175 °C.

Take `N=C(Nc1ccccc1)Nc1ncccc1OCc1c(Cl)cccc1Cl`: the melting point lay within 163 to 165 °C.

Regarding `Cc1ncc2ccc(-c3cccs3)nc2n1`, the melting point is 175 to 180 °C.

In the case of `COc1ccc(CNC(=O)C(OC)OC)cc1OC`, the melting point was determined as 60 °C.

For the molecule `CCCCc1cc2ccccc2c(Oc2ccc(/C=C/C(=O)O)cc2)c1-c1ccc(F)cc1`, the melting point fell in the range of 169 to 170 °C.

In turn, `CCOC(=O)C(Cc1ccc(OCc2ccccc2)cc1)OS(C)(=O)=O` (stereo not given) yielded a melting point of 81 to 83 °C.

Molecule `O=c1[nH]c(-c2ccccn2)nc(C(F)(F)F)c1I` registered a melting point of 186 to 187 °C.

`CCCC12C=CC=C(N3CCC(c4noc5cc(F)ccc45)CC3)C1(O)C(=O)NC2=O` (stereo not given): the melting point was 162 to 163 °C.

`Cc1ccc2[nH]c(NC(=O)c3ccccc3)nc(=O)c2c1` showed a melting point of 240 to 242 °C.

`O=C(CNC(=O)c1ccncc1)NC1CCN(CCc2c[nH]c3ccccc23)CC1`: the melting point lay within 211 to 215 °C.

`COc1ccc(CN2C(=O)C(C)(c3cc(CO)ccc3Cl)c3cc(Cl)ccc32)c(OC)c1` (stereo not given) came in with a melting point of 97 °C.

Molecule `O=[N+]([O-])c1ccc(OCc2ccc(F)cc2)cc1F` yielded a melting point of 90 to 91 °C.

As to `CC1CC(O)=CC(=O)O1` (stereo not given), the melting point is 103 to 104 °C.

Turning to `COC(=O)C(C(=O)OC)c1ccc(Br)cc1`, the melting point lay within 77 to 79 °C.

In turn, `O=C(CCn1cnc2c(=O)[nH]cnc21)NCCCN1CCOCC1` showed a melting point of 145 to 148 °C.

In turn, `CC1(C)OC(=O)C(Oc2ccc(Br)cc2)=C1c1ccc(S(C)(=O)=O)cc1` showed a melting point of 150 to 152 °C.

`Oc1ccc(-c2ccc(O)c3cc(O)c(O)cc23)cc1O` yielded a melting point of 224 to 226 °C.

In the case of `CC(=O)Nc1ccc2oc3c(c2c1)CCCC3`, the melting point lay in the range of 196 to 198 °C.

Take `CN(C(=O)OC(C)(C)C)C1C2CCC1CN(CC(O)COc1ccc(C#N)cc1)C2` (stereo not given): the melting point was in the range of 109 to 112 °C.

As for `NS(=O)(=O)c1cccc(-c2cc(-c3nc(-c4ccc(Cl)c(Cl)c4)cc(C(F)(F)F)n3)ccn2)c1`, the melting point is 247 °C.

Take `CC1(C(=O)O)CCc2c(C(=O)c3ccc(Cl)cc3)cccc21` (stereo not given): the melting point lay in the range of 146 to 150 °C.

For the molecule `Cc1c(C)c2c(c(C)c1O)CCC(C)(C(=O)NCC1(c3ccc(-n4c(C)ccc4C)cc3)CCCC1)O2` (stereo not given), the melting point was 90 to 94 °C.

`CCCCCCCCCCCCCCCCCCNC(=O)NN` showed a melting point of 100 °C.

`CCOC(=O)C1[C@@H]2[C@@H](O)[C@@H]3O[C@H](c4ccc(C(F)(F)F)cc4)OC[C@H]3O[C@H]12` (stereo not given in full) came in with a melting point of 128 to 131 °C.

The molecule `CC1(CF)C=C(C(=O)NCCC#N)c2cc([N+](=O)[O-])ccc2O1` (stereo not given) registered a melting point of 165 to 167 °C.

`CCCCN(CCCC)c1ccc(C=C2C(=C(C#N)C#N)c3ccccc3C2=C(C#N)C#N)c(OC)c1` came in with a melting point of 195 to 198 °C.

Molecule `CCc1ccc(Nc2c(C#N)cnc3cc(OC)c(OC)cc23)cc1` registered a melting point of 248 to 250 °C.

In turn, `O=c1c(Br)cc(Cc2ccccc2)cn1Cc1ccccc1` had a melting point of 89 to 90 °C.

The molecule `Fc1ccc2c(c1)[C@@H]1c3ccccc3N[C@@H]1C2` (relative stereo) returned a melting point of 116 to 117 °C.

In the case of `COc1ccc2cc([C@H](C)C(=O)OCC(CO)(CO)[N+](=O)[O-])ccc2c1`, the melting point was in the range of 124 to 126 °C.

For `N#CC1OC(=O)c2c(F)ccc(F)c21` (stereo not given), the melting point was 87 to 89 °C.

On to `COc1ccc(CNc2nc(NCCCc3ccc(C(C)(C)O)cc3)nc3ncccc23)cc1OC`, for which the melting point fell in the range of 198 to 199 °C.
